# Reference: PubChem BioAssay (NCI)
#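 Grown in 96-well plates, cells were treated for 48 hours with each compound at five concentrations. Insufficient inhibition: endpoint recorded as highest concentration tested. TGI marks complete inhibition of growth.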
# Assays:
# Test in all cases: NCI tumour cell line growth inhibition, 48 h
# HOP-92 NSCLC = test system: HOP-92 NSCLC
# NCI-H23 lung = test system: NCI-H23 lung
# DU-145 prostate = test system: DU-145 prostate
# K-562 leukemia = test system: K-562 leukemia
# UACC-257 melanoma = test system: UACC-257 melanoma
# HL-60(TB) leukemia = test system: HL-60(TB) leukemia
# ACHN renal = test system: ACHN renal
# MCF7 breast = test system: MCF7 breast
# HCT-116 colon = test system: HCT-116 colon
# OVCAR-8 ovarian = test system: OVCAR-8 ovarian
# NCI-H522 lung = test system: NCI-H522 lung
# SW-620 colon = test system: SW-620 colon
# SF-268 CNS = test system: SF-268 CNS
# U251 CNS = test system: U251 CNS
# NCI/ADR-RES ovarian = test system: NCI/ADR-RES ovarian
# OVCAR-4 ovarian = test system: OVCAR-4 ovarian
# SF-539 CNS = test system: SF-539 CNS
# A549 NSCLC = test system: A549 NSCLC
# MDA-N = test system: MDA-N
# UACC-62 melanoma = test system: UACC-62 melanoma
# A498 renal = test system: A498 renal
# CAKI-1 renal = test system: CAKI-1 renal
# SNB-19 CNS = test system: SNB-19 CNS
# HT29 colon = test system: HT29 colon
# NCI-H226 lung = test system: NCI-H226 lung
# RPMI-8226 leukemia = test system: RPMI-8226 leukemia
# 786-0 renal = test system: 786-0 renal
# OVCAR-5 ovarian = test system: OVCAR-5 ovarian
# CCRF-CEM leukemia = test system: CCRF-CEM leukemia
# M14 melanoma = test system: M14 melanoma
# HOP-62 NSCLC = test system: HOP-62 NSCLC
# SNB-75 CNS = test system: SNB-75 CNS
# HS 578T breast = test system: HS 578T breast
# EKVX NSCLC = test system: EKVX NSCLC
# MOLT-4 leukemia = test system: MOLT-4 leukemia
# BT-549 breast = test system: BT-549 breast
# HCT-15 colon = test system: HCT-15 colon
# PC-3 prostate = test system: PC-3 prostate
# RXF 393 renal = test system: RXF 393 renal
# KM12 colon = test system: KM12 colon
# TK-10 renal = test system: TK-10 renal
# MDA-MB-231 breast = test system: MDA-MB-231 breast
# MALME-3M melanoma = test system: MALME-3M melanoma
# SR leukemia = test system: SR leukemia
# T-47D breast = test system: T-47D breast
# UO-31 renal = test system: UO-31 renal
# COLO 205 colon = test system: COLO 205 colon
# SK-MEL-5 melanoma = test system: SK-MEL-5 melanoma
# OVCAR-3 ovarian = test system: OVCAR-3 ovarian
# IGROV1 ovarian = test system: IGROV1 ovarian
# LOX IMVI melanoma = test system: LOX IMVI melanoma
# SF-295 CNS = test system: SF-295 CNS
# SN12C renal = test system: SN12C renal
# NCI-H460 lung = test system: NCI-H460 lung
# MDA-MB-435 = test system: MDA-MB-435
# SK-OV-3 ovarian = test system: SK-OV-3 ovarian
# SK-MEL-2 melanoma = test system: SK-MEL-2 melanoma
# SK-MEL-28 melanoma = test system: SK-MEL-28 melanoma
# HCC-2998 colon = test system: HCC-2998 colon
smiles,measurement,setting,value
O=c1[nH]c2ccc(Cl)cc2o1,TGI,HOP-92 NSCLC,> 100 µM
same,TGI,NCI-H23 lung,> 100 µM
same,TGI,DU-145 prostate,> 100 µM
same,TGI,K-562 leukemia,> 100 µM
same,TGI,UACC-257 melanoma,> 100 µM
same,TGI,HL-60(TB) leukemia,> 100 µM
same,TGI,ACHN renal,> 100 µM
same,TGI,MCF7 breast,> 100 µM
same,TGI,HCT-116 colon,> 100 µM
same,TGI,OVCAR-8 ovarian,> 100 µM
same,TGI,NCI-H522 lung,> 100 µM
same,TGI,SW-620 colon,> 100 µM
same,TGI,SF-268 CNS,> 100 µM
same,TGI,U251 CNS,> 100 µM
same,TGI,NCI/ADR-RES ovarian,> 100 µM
same,TGI,OVCAR-4 ovarian,> 100 µM
same,TGI,SF-539 CNS,> 100 µM
same,TGI,A549 NSCLC,> 100 µM
same,TGI,MDA-N,> 100 µM
same,TGI,UACC-62 melanoma,> 100 µM
same,TGI,A498 renal,> 100 µM
same,TGI,CAKI-1 renal,> 100 µM
same,TGI,SNB-19 CNS,> 100 µM
same,TGI,HT29 colon,> 100 µM
same,TGI,NCI-H226 lung,> 100 µM
same,TGI,RPMI-8226 leukemia,> 100 µM
same,TGI,786-0 renal,> 100 µM
same,TGI,OVCAR-5 ovarian,> 100 µM
same,TGI,CCRF-CEM leukemia,> 100 µM
same,TGI,M14 melanoma,> 100 µM
same,TGI,HOP-62 NSCLC,> 100 µM
same,TGI,SNB-75 CNS,> 100 µM
same,TGI,HS 578T breast,> 100 µM
same,TGI,EKVX NSCLC,> 100 µM
same,TGI,MOLT-4 leukemia,> 100 µM
same,TGI,BT-549 breast,> 100 µM
same,TGI,HCT-15 colon,> 100 µM
same,TGI,PC-3 prostate,> 100 µM
same,TGI,RXF 393 renal,> 100 µM
same,TGI,KM12 colon,> 100 µM
same,TGI,TK-10 renal,> 100 µM
same,TGI,MDA-MB-231 breast,> 100 µM
same,TGI,MALME-3M melanoma,> 100 µM
same,TGI,SR leukemia,> 100 µM
same,TGI,T-47D breast,> 100 µM
same,TGI,UO-31 renal,> 100 µM
same,TGI,COLO 205 colon,> 100 µM
same,TGI,SK-MEL-5 melanoma,> 100 µM
same,TGI,OVCAR-3 ovarian,> 100 µM
same,TGI,IGROV1 ovarian,> 100 µM
same,TGI,LOX IMVI melanoma,> 100 µM
same,TGI,SF-295 CNS,> 100 µM
same,TGI,SN12C renal,> 100 µM
same,TGI,NCI-H460 lung,> 100 µM
same,TGI,MDA-MB-435,> 100 µM
same,TGI,SK-OV-3 ovarian,> 100 µM
COC(=O)[C@]12C3=C(O)C(=O)C[C@H]1OC[C@H]2C=CC3,TGI,SK-MEL-2 melanoma,> 100 µM
same,TGI,HOP-92 NSCLC,> 100 µM
same,TGI,NCI-H23 lung,> 100 µM
same,TGI,DU-145 prostate,> 100 µM
same,TGI,K-562 leukemia,> 100 µM
same,TGI,UACC-257 melanoma,> 100 µM
same,TGI,ACHN renal,> 100 µM
same,TGI,MCF7 breast,> 100 µM
same,TGI,OVCAR-8 ovarian,> 100 µM
same,TGI,NCI-H522 lung,46.8 µM
same,TGI,SW-620 colon,63.4 µM
same,TGI,SF-268 CNS,> 100 µM
same,TGI,U251 CNS,> 100 µM
same,TGI,NCI/ADR-RES ovarian,> 100 µM
same,TGI,OVCAR-4 ovarian,> 100 µM
same,TGI,A549 NSCLC,> 100 µM
same,TGI,MDA-N,> 100 µM
same,TGI,UACC-62 melanoma,> 100 µM
same,TGI,A498 renal,> 100 µM
same,TGI,CAKI-1 renal,> 100 µM
same,TGI,SNB-19 CNS,> 100 µM
same,TGI,RPMI-8226 leukemia,> 100 µM
same,TGI,786-0 renal,> 100 µM
same,TGI,OVCAR-5 ovarian,> 100 µM
same,TGI,M14 melanoma,> 100 µM
same,TGI,HOP-62 NSCLC,> 100 µM
same,TGI,SNB-75 CNS,> 100 µM
same,TGI,HS 578T breast,> 100 µM
same,TGI,EKVX NSCLC,> 100 µM
same,TGI,BT-549 breast,> 100 µM
same,TGI,HCT-15 colon,> 100 µM
same,TGI,PC-3 prostate,> 100 µM
same,TGI,RXF 393 renal,> 100 µM
same,TGI,KM12 colon,> 100 µM
same,TGI,TK-10 renal,> 100 µM
same,TGI,MDA-MB-231 breast,> 100 µM
same,TGI,MALME-3M melanoma,> 100 µM
same,TGI,SR leukemia,> 100 µM
same,TGI,T-47D breast,> 100 µM
same,TGI,UO-31 renal,> 100 µM
same,TGI,COLO 205 colon,> 100 µM
same,TGI,SK-MEL-28 melanoma,> 100 µM
same,TGI,SK-MEL-5 melanoma,> 100 µM
same,TGI,OVCAR-3 ovarian,> 100 µM
same,TGI,IGROV1 ovarian,> 100 µM
same,TGI,HCC-2998 colon,> 100 µM
same,TGI,LOX IMVI melanoma,> 100 µM
same,TGI,SF-295 CNS,> 100 µM
same,TGI,SN12C renal,> 100 µM
same,TGI,NCI-H460 lung,> 100 µM
same,TGI,MDA-MB-435,> 100 µM
same,TGI,SK-OV-3 ovarian,> 100 µM
